Test system: T24 bladder cancer cell lines
Experiment: StaRT-PCR gene expression, SC23
Format: cell-based, human
Description: FIG. 21 illustrates RT-PCR gene expression analysis. Total RNA form T24 cells was isolated and cDNA was synthesized with 2.5 ug of total RNA. Standardized RT-PCR was performed with GENE system I gene expression kit (Gene Express Inc.). Each kit contains a mixture of the internal competitive templates and the corresponding primers.
Total RNA form T24 cells were isolated after 3h, Oh, 12h, 24h, and 48h exposure to SC23.
StaRT-PCR™ (Standardized Reverse Transcription Polymerase Chain Reaction). First described by Willey et al. ((2004) Methods Mol. Biol. 258:13-41), this technique uses standardized mixtures of competitive templates (CT) as internal standards in generating valid and reproducible numerical gene expression data for multiple genes. After the mRNA was converted to cDNA, the cDNA was mixed with a proprietary Standardized Mixture of Internal Standards™ (SMIS™, GeneExpress, Inc.). In the standard mixture, there is an internal standard CT for each gene to be measured as well as one for a reference gene. (i.e., β-actin, GAPDH). The amplicons produced by StaRT-PCR™ was then separated on capillary electrophoresis. The amount of internal standard CT or NT amplimer was determined by measuring each peak area. All data were then reported as number of molecules of mRNA for gene of interest per 10^6 molecules of reference gene (normalizer gene). Serial dilutions of the SMIS™ allow quantitative measurements over 7 log range of gene expression observed in cells from <10 to 10^7 molecules/10^6 molecules reference gene. Data presented in Table 8 are number of copies that have been normalized against 10^6 molecule of β-actin.

O=C(NNC(O)c1cc2ccccc2cc1O)c1cc2ccccc2cc1O (stereo not shown) [SC23]
E2F4 expression (12 hours): 1673.69 molecules/10^6 β-actin
E2F5 expression (12 hours): 486.8 molecules/10^6 β-actin
JUN expression (12 hours): 5419.7 molecules/10^6 β-actin
MAD expression (12 hours): 7122.48 molecules/10^6 β-actin
MAP3K14 expression (12 hours): 158.89 molecules/10^6 β-actin
MYC expression (12 hours): 5205.65 molecules/10^6 β-actin
NFKB1 expression (12 hours): 6131.17 molecules/10^6 β-actin
PCNA expression (12 hours): 5756.09 molecules/10^6 β-actin
PTGS2 expression (12 hours): 2138.52 molecules/10^6 β-actin
RB1 expression (12 hours): 3301.83 molecules/10^6 β-actin
RBL2 expression (12 hours): 2698.44 molecules/10^6 β-actin
TGFBR2 expression (12 hours): 6799.19 molecules/10^6 β-actin
TGIF expression (12 hours): 13858.11 molecules/10^6 β-actin
TNFAIP1 expression (12 hours): 22572.81 molecules/10^6 β-actin
TNFRSF1A expression (12 hours): 107.17 molecules/10^6 β-actin
TNFSF10 expression (12 hours): 288.01 molecules/10^6 β-actin
TP53 expression (12 hours): 1663.37 molecules/10^6 β-actin
TRAF4 expression (12 hours): 222.84 molecules/10^6 β-actin
BCL2L1 expression (24 hours): 30504.02 molecules/10^6 β-actin
BCL2 expression (24 hours): 35.99 molecules/10^6 β-actin
CASP1 expression (24 hours): 142.49 molecules/10^6 β-actin
CCNA2 expression (24 hours): 241.1 molecules/10^6 β-actin
CCND3 expression (24 hours): 404.3 molecules/10^6 β-actin
CCNE1 expression (24 hours): 47.28 molecules/10^6 β-actin
CCNG1 expression (24 hours): 17499.15 molecules/10^6 β-actin
CDC2 expression (24 hours): 2054.95 molecules/10^6 β-actin
CDC25C expression (24 hours): 326.46 molecules/10^6 β-actin
CDK7 expression (24 hours): 9983.36 molecules/10^6 β-actin
CDK8 expression (24 hours): 1706.26 molecules/10^6 β-actin
CDKN1A expression (24 hours): 225.4 molecules/10^6 β-actin
CDKN1B expression (24 hours): 2092.37 molecules/10^6 β-actin
CDKN2A expression (24 hours): 163.48 molecules/10^6 β-actin
CDKN2C expression (24 hours): 904.8 molecules/10^6 β-actin
CYP1A2 expression (24 hours): 36.62 molecules/10^6 β-actin
DAP expression (24 hours): 56353.65 molecules/10^6 β-actin
E2F4 expression (24 hours): 1582.79 molecules/10^6 β-actin
E2F5 expression (24 hours): 1178.84 molecules/10^6 β-actin
JUN expression (24 hours): 8677.27 molecules/10^6 β-actin
MAD expression (24 hours): 13204.24 molecules/10^6 β-actin
MAP3K14 expression (24 hours): 143.47 molecules/10^6 β-actin
MYC expression (24 hours): 11117.04 molecules/10^6 β-actin
NFKB1 expression (24 hours): 16919.99 molecules/10^6 β-actin
PCNA expression (24 hours): 12795.59 molecules/10^6 β-actin
PTGS2 expression (24 hours): 19413.37 molecules/10^6 β-actin
RB1 expression (24 hours): 5935.72 molecules/10^6 β-actin
RBL2 expression (24 hours): 8604.92 molecules/10^6 β-actin
TGFBR2 expression (24 hours): 15367.23 molecules/10^6 β-actin
TGIF expression (24 hours): 15445.36 molecules/10^6 β-actin
TNFAIP1 expression (24 hours): 39858.96 molecules/10^6 β-actin
TNFRSF1A expression (24 hours): 26.61 molecules/10^6 β-actin
TNFSF10 expression (24 hours): 151.09 molecules/10^6 β-actin
TP53 expression (24 hours): 4238.06 molecules/10^6 β-actin
TRAF4 expression (24 hours): 242.44 molecules/10^6 β-actin
BCL2L1 expression (48 hours): 21299.99 molecules/10^6 β-actin
BCL2 expression (48 hours): 22.29 molecules/10^6 β-actin
CASP1 expression (48 hours): 184.55 molecules/10^6 β-actin
CCNA2 expression (48 hours): 137.61 molecules/10^6 β-actin
CCND3 expression (48 hours): 641.75 molecules/10^6 β-actin
CCNE1 expression (48 hours): 146.61 molecules/10^6 β-actin
CCNG1 expression (48 hours): 25388.52 molecules/10^6 β-actin
CDC2 expression (48 hours): 497.44 molecules/10^6 β-actin
CDC25C expression (48 hours): 68.37 molecules/10^6 β-actin
CDK7 expression (48 hours): 19212.16 molecules/10^6 β-actin
CDK8 expression (48 hours): 3052.4 molecules/10^6 β-actin
CDKN1A expression (48 hours): 288.56 molecules/10^6 β-actin
CDKN1B expression (48 hours): 414.6 molecules/10^6 β-actin
CDKN2A expression (48 hours): 3382.09 molecules/10^6 β-actin
CDKN2C expression (48 hours): 650.26 molecules/10^6 β-actin
CYP1A2 expression (48 hours): 37.48 molecules/10^6 β-actin
DAP expression (48 hours): 70325.95 molecules/10^6 β-actin
E2F4 expression (48 hours): 3738.46 molecules/10^6 β-actin
E2F5 expression (48 hours): 2144.23 molecules/10^6 β-actin
JUN expression (48 hours): 9510.55 molecules/10^6 β-actin
MAD expression (48 hours): 12999.27 molecules/10^6 β-actin
MAP3K14 expression (48 hours): 720.55 molecules/10^6 β-actin
MYC expression (48 hours): 8944.84 molecules/10^6 β-actin
NFKB1 expression (48 hours): 26524.38 molecules/10^6 β-actin
PCNA expression (48 hours): 6913.72 molecules/10^6 β-actin
PTGS2 expression (48 hours): 26516.88 molecules/10^6 β-actin
RB1 expression (48 hours): 6552.57 molecules/10^6 β-actin
RBL2 expression (48 hours): 11571.33 molecules/10^6 β-actin
TGFBR2 expression (48 hours): 5072 molecules/10^6 β-actin
TGIF expression (48 hours): 19849.69 molecules/10^6 β-actin
TNFAIP1 expression (48 hours): 49955.6 molecules/10^6 β-actin
TNFRSF1A expression (48 hours): 21.29 molecules/10^6 β-actin
TNFSF10 expression (48 hours): 79.65 molecules/10^6 β-actin
TP53 expression (48 hours): 2821 molecules/10^6 β-actin
TRAF4 expression (48 hours): 298.28 molecules/10^6 β-actin

— patent US20110034472A1, “Novel Compounds for Treatment of Cancer and Disorders Associated With Angiogenesis Function” (UNIVERSITY OF SOUTHERN CALIFORNIA, priority 2004, published 2011)
